From US8859465B2, “Synergistic herbicidal composition containing penoxsulam and glufosinate-ammonium” (Dow AgroSciences LLC, priority 2011, dated 2014)

Tests used:
Type in all cases: in vivo
[1] = system: Japanese bulrush (Schoenoplectus juncoides, SCPJU); assay: Postemergence herbicidal activity of mixtures under field conditions in wet-seeded rice, SCPJU
Procedure: (§1) Evaluation of Postemergence Herbicidal Activity of Mixtures under Field Conditions Methodology
(§2) Field trials were conducted in rice using standard herbicide small plot research methodology. Plot size was 2 square meters (m^2) using 1.6 meter (m) diameter rings placed into the rice paddy soil with capability for flooding to maintain good rice cultural practices and rice growing conditions. There were 3 replicates per treatment. Rice was Japonica type that was sown as wet-seeded rice (pre-germinated) into the saturated soil in the rings as per normal cultural practices. The rice crop was grown using normal cultural practices for fertilization, seeding, watering, flooding and maintenance to ensure good growth of the crop and the weeds under seeded rice conditions in Taiwan. Ring plot water conditions were maintained under saturated soil conditions after planting. Just prior to treatment application, any remaining plot water was drained to maintain saturated soil in ring plot. Treatments were applied by backpack using compressed air at 30 pounds per square inch (psi) using Flat Fan nozzles at a spray volume of 450 Liters/hectare (L/ha). Penoxsulam was applied as the Fencer® 25OD formulation. Glufosinate-ammonium was applied as the Basta® 135 SL formulation.
(§3) All treatments in the field trials were applied by spraying the treatments on the rice and weeds and evaluated at 7, 14, or 28 days after application (DAA). Commercially available products of penoxsulam (FENCER 25OD) and glufosinate-ammonium (BASTA 135 SL) were mixed in water and sprayed onto the rice and weeds with the appropriate formulated product amounts to treat 2 m^2 to achieve the desired application rates based on unit area of application (hectare).
(§4) The treated and control plots were rated blind at various intervals after application, with the last evaluation taken 28 days after application. Ratings were based on percent (%) visual weed control, where 0 corresponds to no control and 100 corresponds to complete control.
(§5) Colby's equation was used to determine the herbicidal effects expected from the mixtures (Colby, S. R. Calculation of the synergistic and antagonistic response of herbicide combinations. Weeds 1967 15, 20-22). Results are shown where P<0.05 according to Colby's method of analysis.
(§6) The following equation was used to calculate the expected activity of mixtures containing two active ingredients, A and B: Expected=A+B−(A×B/100)
(§7) A=observed efficacy of active ingredient A at the same concentration as used in the mixture;
(§8) B=observed efficacy of active ingredient B at the same concentration as used in the mixture.

[2] = system: smallflower umbrella sedge (Cyperus difformis, CYPDI); assay: Postemergence herbicidal activity of mixtures under field conditions in wet-seeded rice, CYPDI; details: 14 DAA
Procedure: as §1, §2, §3, §4, §5, §6, §7, §8

[3] = system: barnyardgrass (Echinochloa crus-galli, ECHCG); assay: Postemergence herbicidal activity of mixtures under field conditions in wet-seeded rice, ECHCG
Procedure: as §1, §2, §3, §4, §5, §6, §7, §8

[4] = system: monochoria (Monochoria vaginalis, MOOVA); assay: Postemergence herbicidal activity of mixtures under field conditions in wet-seeded rice, MOOVA; details: 14 DAA
Procedure: as §1, §2, §3
The treated and control plots were rated blind at various intervals after application, with the last evaluation taken 28 days after application. Ratings were based on percent (%) visual weed control, where 0 corresponds to no control and 100 corresponds to complete control. […]

[5] = 28 DAA, glufosinate-ammonium 35 grams ai/ha
[6] = 28 DAA, glufosinate-ammonium 70 grams ai/ha
[7] = 28 DAA, glufosinate-ammonium 140 grams ai/ha
[8] = glufosinate-ammonium 70 grams ai/ha
[9] = 28 DAA, penoxsulam 5 grams ai/ha

2-amino-4-(hydroxymethylphosphinyl)butanoic acid [Glufosinate-ammonium]
SCPJU (% Control) Obs ([1]; 7 DAA, glufosinate-ammonium 18 grams ai/ha): 0%
SCPJU (% Control) Obs ([1]; 7 DAA, glufosinate-ammonium 35 grams ai/ha): 0%
SCPJU (% Control) Obs ([1]; 7 DAA, glufosinate-ammonium 70 grams ai/ha): 0%
SCPJU (% Control) Obs ([1]; 7 DAA, glufosinate-ammonium 140 grams ai/ha): 0%
SCPJU (% Control) Obs ([1]; 28 DAA, glufosinate-ammonium 18 grams ai/ha): 0%
SCPJU (% Control) Obs [1, 5]: 0%
SCPJU (% Control) Obs [1, 6]: 0%
SCPJU (% Control) Obs [1, 7]: 0%
CYPDI (% Control) Obs ([2]; glufosinate-ammonium 35 grams ai/ha): 0%
CYPDI (% Control) Obs [2, 8]: 0%
CYPDI (% Control) Obs ([2]; glufosinate-ammonium 140 grams ai/ha): 0%
ECHCG (% Control) Obs ([3]; 14 DAA, glufosinate-ammonium 35 grams ai/ha): 0%
ECHCG (% Control) Obs ([3]; 14 DAA, glufosinate-ammonium 70 grams ai/ha): 0%
ECHCG (% Control) Obs ([3]; 14 DAA, glufosinate-ammonium 140 grams ai/ha): 27%
ECHCG (% Control) Obs [3, 5]: 0%
ECHCG (% Control) Obs [3, 6]: 0%
ECHCG (% Control) Obs [3, 7]: 0%
ECHCG (% Control) Obs ([3]; 28 DAA, glufosinate-ammonium 280 grams ai/ha): 13%
MOOVA (% Control) Obs ([4]; glufosinate-ammonium 18 grams ai/ha): 0%
MOOVA (% Control) Obs [4, 8]: 0%

COc1cnc(OC)n2nc(NS(=O)(=O)c3c(OCC(F)F)cccc3C(F)(F)F)nc12 [Penoxsulam, 2-(2,2-difluoroethoxy)-N-(5,8-dimethoxy-[1,2,4]triazolo[1,5-c]pyrimidin-2-yl)-6-(trifluoromethyl)benzenesulfonamide]
SCPJU (% Control) Obs ([1]; 7 DAA, penoxsulam 5 grams ai/ha): 40%
SCPJU (% Control) Obs ([1]; 7 DAA, penoxsulam 20 grams ai/ha): 92%
SCPJU (% Control) Obs [1, 9]: 0%
CYPDI (% Control) Obs ([2]; penoxsulam 5 grams ai/ha): 73%
ECHCG (% Control) Obs ([3]; 14 DAA, penoxsulam 5 grams ai/ha): 53%
ECHCG (% Control) Obs ([3]; 14 DAA, penoxsulam 10 grams ai/ha): 62%
ECHCG (% Control) Obs [3, 9]: 30%
ECHCG (% Control) Obs ([3]; 28 DAA, penoxsulam 10 grams ai/ha): 42%
ECHCG (% Control) Obs ([3]; 28 DAA, penoxsulam 20 grams ai/ha): 87%
MOOVA (% Control) Obs ([4]; penoxsulam 5 grams ai/ha): 37%
